Assay results reported in ChEMBL document CHEMBL5154870, “Discovery of novel glutaminase 1 allosteric inhibitor with 4-piperidinamine linker and aromatic heterocycles” (Eur J Med Chem, 2022).

Experiments:
[1] = Metabolic stability in human liver microsomes assessed as half life at 10 uM by LC-MS/MS analysis; assay type: ADME, Microsome; settings: for half-life at 10 µM: liver microsomes
[2] = Metabolic stability in human liver microsomes assessed as intrinsic clearance at 10 uM by LC-MS/MS analysis; assay type: ADME, Microsome; settings: read-out: CLH
[3] = biological target: T1, Glutaminase kidney isoform, mitochondrial (Homo sapiens, UniProt O94925); assay: Allosteric inhibition of human GLS1 using glutamine as substrate incubated for 60 mins by NADH/NADPH-based absorbance analysis
T1 sequence (O94925 whole entry): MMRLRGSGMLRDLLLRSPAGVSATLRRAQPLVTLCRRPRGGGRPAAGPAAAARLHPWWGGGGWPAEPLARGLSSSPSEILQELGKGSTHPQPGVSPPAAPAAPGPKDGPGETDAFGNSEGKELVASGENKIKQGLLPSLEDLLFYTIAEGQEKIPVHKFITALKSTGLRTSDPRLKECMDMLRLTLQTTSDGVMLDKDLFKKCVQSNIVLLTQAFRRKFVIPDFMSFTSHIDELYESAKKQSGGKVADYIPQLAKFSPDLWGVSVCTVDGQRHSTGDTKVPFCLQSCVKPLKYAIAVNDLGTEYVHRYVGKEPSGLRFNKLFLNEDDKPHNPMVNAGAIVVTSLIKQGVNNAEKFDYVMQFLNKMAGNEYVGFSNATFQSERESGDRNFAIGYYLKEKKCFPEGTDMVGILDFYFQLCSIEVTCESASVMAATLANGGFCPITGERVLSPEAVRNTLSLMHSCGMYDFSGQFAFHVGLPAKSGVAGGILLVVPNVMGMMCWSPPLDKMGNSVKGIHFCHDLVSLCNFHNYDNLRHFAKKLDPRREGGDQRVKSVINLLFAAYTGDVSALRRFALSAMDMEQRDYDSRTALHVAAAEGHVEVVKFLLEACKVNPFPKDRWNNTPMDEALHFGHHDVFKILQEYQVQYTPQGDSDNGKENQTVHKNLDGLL

HCT-116 [4] = assay: Antiproliferative activity against human HCT-116 cells overexpressing GLS1 assessed as inhibition of cell proliferation measured after 72 hrs by MTT assay; assay type: functional, cell-based; settings: HCT-116, 72 h
[5] = Metabolic stability in human plasma assessed as parent compound remaining at 1 uM measured after 2 hrs by LC-MS/MS analysis; assay type: ADME, cell-free; settings: read-out: Stability
MDA-MB-436 = assay: Antiproliferative activity against human MDA-MB-436 cells overexpressing GLS1 assessed as inhibition of cell proliferation measured after 72 hrs by MTT assay; assay type: functional, cell-based; settings: MDA-MB-436, 72 h
[6] = Metabolic stability in human liver microsomes assessed as parent compound remaining at 10 uM measured after 30 mins by LC-MS/MS analysis; assay type: ADME, Microsome
[7] = Metabolic stability in human liver microsomes assessed as parent compound remaining at 10 uM measured after 60 mins by LC-MS/MS analysis; assay type: ADME, Microsome
[8] = biological target: T2, Glutaminase kidney isoform, mitochondrial (Homo sapiens) (UniProt O94925); settings: filed as negative allosteric modulator
T2 sequence (whole entry): T1 sequence (O94925 whole entry)
Description: Binding affinity to human GLS1 assessed as stabilization of protein by measuring change in melting temperature by protein thermal shift assay

[9] = biological target: T1, Glutaminase kidney isoform, mitochondrial; assay: Binding affinity to human GLS1 assessed as dissociation constant by surface plasmon resonance analysis
CT26 = assay: Antiproliferative activity against mouse CT26 cells overexpressing GLS1 assessed as inhibition of cell proliferation measured after 72 hrs by MTT assay; assay type: functional, cell-based; settings: CT26, 72 h
[10] = biological target: T3, Glutaminase kidney isoform, mitochondrial (Mus musculus, UniProt D3Z7P3); assay: Inhibition of GLS1 in mouse kidney assessed as inhibition of glutamate production using glutamine as substrate incubated for 1 hr by coupled assay; assay type: tissue-based
T3 sequence (D3Z7P3 whole entry): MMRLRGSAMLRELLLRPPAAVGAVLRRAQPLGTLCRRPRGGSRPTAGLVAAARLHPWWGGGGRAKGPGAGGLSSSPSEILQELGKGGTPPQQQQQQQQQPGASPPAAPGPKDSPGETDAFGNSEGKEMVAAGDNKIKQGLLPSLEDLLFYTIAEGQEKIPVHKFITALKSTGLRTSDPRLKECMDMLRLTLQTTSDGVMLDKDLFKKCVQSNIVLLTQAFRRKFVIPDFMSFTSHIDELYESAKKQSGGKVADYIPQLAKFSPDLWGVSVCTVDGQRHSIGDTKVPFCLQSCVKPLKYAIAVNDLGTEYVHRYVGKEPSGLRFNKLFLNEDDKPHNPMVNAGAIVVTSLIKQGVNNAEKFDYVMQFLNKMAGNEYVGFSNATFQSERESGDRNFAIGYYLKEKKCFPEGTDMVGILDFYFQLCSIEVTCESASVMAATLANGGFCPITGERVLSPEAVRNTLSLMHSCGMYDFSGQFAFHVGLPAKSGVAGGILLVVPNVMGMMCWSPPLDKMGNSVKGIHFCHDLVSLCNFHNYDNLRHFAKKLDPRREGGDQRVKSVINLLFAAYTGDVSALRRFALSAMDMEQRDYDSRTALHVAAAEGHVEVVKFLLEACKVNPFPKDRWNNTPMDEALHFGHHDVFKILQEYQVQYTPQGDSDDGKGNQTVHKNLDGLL

HCT-116 [11] = assay: Antitumor activity against human HCT-116 cells xenografted in BALB/c SPF mouse assessed as tumor growth inhibition at 100 mg/kg, ip administered BID for 21 days; assay type: functional; settings: time 21 day
H22 = assay: Antiproliferative activity against mouse H22 cells assessed as inhibition of cell proliferation measured after 72 hrs by MTT assay; assay type: functional, cell-based; settings: H22, 72 h
[12] = biological target: T3, Glutaminase kidney isoform, mitochondrial; assay: Inhibition of GLS1 in mouse brain assessed as inhibition of glutamate production using glutamine as substrate incubated for 1 hr by coupled assay; assay type: tissue-based
[13] = liver microsomes, read-out: Stability

half-life at 10 µM [1] [h] | microsomal CLint at 10 µM [2] [µL/min/mg] | IC50 [3] [nM] | IC50 (HCT-116 [4]) [nM] | remaining at 2 h, 1 µM [5] [%] | IC50 (MDA-MB-436) [nM] | remaining at 0.5 h, 10 µM [6, 13] [%] | remaining at 1 h, 10 µM [7, 13] [%] | ΔTm [8] [°C] | Kd [9] [nM] | t1/2 ([1]; microsomes, 10 µM) [h] | Stability ([6]; microsomes, 0.5 h, 10 µM) [%] | IC50 (CT26) [nM] | Stability ([7]; microsomes, 1 h, 10 µM) [%] | IC50 [10] [nM] | IC50 [12] [nM] | SMILES | TGI (HCT-116 [11]) [%] | IC50 (H22) [nM]
1.91 | 15.1 | 4.85 | 350 | 91 | 840 |  |  |  |  |  |  |  |  |  |  | CO[C@@H](C(=O)Nc1nnc(NC2CCN(c3nnc(NC(=O)CCc4cn(CC5=CC=C(C(F)(F)F)CC5)nn4)s3)CC2)s1)c1ccccc1 |  | 
0.655 | 40.2 |  |  | 72 |  | 56 | 35 |  |  |  |  |  |  |  |  | Cc1ccc(Cn2cc(CCC(=O)Nc3ccc(CCCCc4nnc(NC(=O)Cc5ccccn5)s4)nn3)nn2)cc1 |  | 
5.21 | 5.57 | 19.3 | 160 | 98 | 620 |  |  | 15.2 | 81 |  |  |  |  |  |  | CO[C@H](C(=O)Nc1nnc(NC2CCN(c3nnc(NC(=O)CCc4cn(-c5ccc(C(F)(F)F)cc5)nn4)s3)CC2)s1)c1ccccc1 |  | 
1.15 | 25.2 | 17.4 | 120 | 76 | 530 |  |  |  |  |  |  |  |  |  |  | O=C(Cc1ccccc1)Nc1nnc(NC2CCN(c3nnc(NC(=O)c4ccn(Cc5ccc(C(F)(F)F)cc5)n4)s3)CC2)s1 |  | 
 | 19.5 |  |  | 85 | 410 |  |  |  |  | 1.524 | 98 | 420 | 89 | 20 | 20 | O=C(Cc1cccc(OC(F)(F)F)c1)Nc1ccc(CCCCc2nnc(NC(=O)Cc3ccccn3)s2)nn1 | 50.6 | 1340
